The results in this text go back to US20250129002A1, “PRODUCTION METHOD OF PRODUCT 1,3-BUTYLENE GLYCOL” (KH Neochem Co., Ltd., priority 2021, published 2025).

The subject of the data set is Cysteine-containing peptide for DPRA. Nature of the data set: Skin sensitization test in accordance with DPRA (direct peptide reactivity assay). The conditions noted are these: relative to peptide decrease percentage of Comparative Example 1 regarded as 100; 50 μL 1,3-butylene glycol with 0.667 mM peptide solution; HPLC after 72±2 hours; average of three measurements. The source says:
The product 1,3-butylene glycol in the present embodiment has reduced skin sensitization. Here, skin sensitization refers to causing an allergic reaction after skin contact. For the evaluation of skin sensitization, it had been normal to use experimental animals, but a direct peptide reactivity assay (DPRA), which is an in chemico test, was adopted as an alternative test in OECD guideline TG442C in 2015 from the viewpoint of animal welfare, and in the present embodiment as well, skin sensitization is evaluated by a test in accordance with DPRA. In more detail, skin sensitization is evaluated according to a method described in experimental examples to be described below.
Regarding 1,3-butylene glycol obtained in Examples 1 and 2 and Comparative Examples 1 and 2, skin sensitization was evaluated according to the following method.
15 mg of Cysteine-containing peptide for DPRA manufactured by Scrum Inc. and 30 mL of a 0.05 M phosphate buffer were mixed together to prepare a 0.05 M phosphate buffer solution containing 0.667 mM of the peptide (hereinafter, peptide solution). After one hour elapsed from the preparation of the peptide solution, 750 μL of the peptide solution and 250 μL of acetonitrile were put into each of three brown sample bottles for HPLC to prepare three reference solutions. After two hours elapsed from the preparation of the reference solutions, 750 μL of the peptide solution, 200 μL of acetonitrile and 50 μL of 1,3-butylene glycol were put into a different brown sample bottle for HPLC to prepare a sample solution (sample solution 1). Furthermore, sample solutions were prepared by the same operation after four hours and six hours elapsed from the preparation of the sample solution, respectively (sample solution 2 and sample solution 3). Regarding each of the three reference solutions and the sample solutions (sample solution 1, sample solution 2 and sample solution 3), measurement by HPLC analysis was performed after 72±2 hours elapsed from the preparation of each solution, and the average values of three measurements were calculated for the peak height of the peptide in the reference solutions and the sample solutions, respectively. The peptide decrease percentage was calculated using the following formula (1) from the calculated average values of three measurements.
Peptide decrease percentage (%)=(average value of three measurements for peak height of peptide in sample solutions/average value of three measurements for peak height of peptide in reference solutions)×100 (1)
In addition, regarding the present test, samples of the product 1,3-butylene glycol to be compared were tested on the same day from the viewpoint of the reproducibility. […]
In the case of `CC(O)CCO` (stereo not shown) [Example 2, 1,3-butylene glycol], the “Relative value of peptide decrease percentage” value stood at 85.
Under `CC(O)CCO` (stereo not shown) [Comparative Example 1, 1,3-butylene glycol] stands 100; under `CC(O)CCO` (stereo not shown) [Example 1, 1,3-butylene glycol], 73.
For `CC(O)CCO` (stereo not shown) [Comparative Example 2, 1,3-butylene glycol], the “Relative value of peptide decrease percentage” value was 121.
